Assay results as given in US8008071B2 (University of South Florida, priority 1999, dated 2011).
pKi: −log10 of the molar value. Entries after “also recorded” stand apart in the source; their conditions may differ.

Assays:
[1] = tested on: PKCβII mRNA; test: RT-PCR of PKCβII mRNA in synchronized A10 cells; type: cell-based, rat; conditions: for effect of glucose analogs on PKCβII mRNA: 25 mM analog; for PERCENT OF PKCβII mRNA POST-GLUCOSE TREATMENT: inhibitor added 30 minutes prior to 25 mM glucose, 5.5 mM glucose control = 100%; for PERCENT OF PKCβII mRNA POST-GLUCOSE TREATMENT / effect of inhibitor on glucose-induced destabilization of PKCβII mRNA: synchronized A10 cells; for effect of inhibitor on glucose-induced destabilization of PKCβII mRNA: 30 minutes pre-incubation, then 25 mM glucose
Experimental: (§1) Reverse Transcriptase-Polymerase Chain Reaction. […] The upstream sense primer corresponded to the C4 kinase domain common to both PKCβI and PKCβII (5′ […] 3′) [SEQ ID NO:4] and the downstream antisense primer was specific for PKCβI (5′ […] 3′) [SEQ ID NO:5] (Chalfant et al., 1995, pp.13326-13332). These primers detect inclusion of the PKCβII exon in the mature mRNA as well as PKCβI mRNA. Sense and antisense primers for β-actin (#5402-3) were obtained from Clonetech. PCR was performed using ampliTaq Gold DNA polymerase from PERKIN ELMER (#N808-0240) on 10% of the reverse transcriptase reaction product. Following 35 cycles of amplification in a BIOMETRA Trioblock thermocycler (PKCβI and -βII: 95° C., 30 sec; 64° C., 2 min for 35 cycles; and for β-actin: 94° C., 1 min; 58° C., 1 min; and 72° C., 3 min for 35 cycles), 25% of the PCR reaction was resolved on a 1.2% agarose gel. Bands were observed under UV light and photographed.
Primers were designed for the upstream common kinase region (C4) (-sense primer) and the PKCβI exon (-antisense primer) for simultaneous amplification of both PKCβI and -βII messages by RT-PCR.

[2] = tested on: rat VSMC; conditions: cited from earlier work
[3] = tested on: PKCβ(I+II) mRNA; test: In vitro RNA stability assay with post-nuclear extracts of A10 cells; set-up: species or system rat; conditions: 50 mM EDTA added to the reaction mix
Experimental: RNA stability assay. To prepare post-nuclear extracts (see, for example, Wager, R. E. and R. K. Assoian. 1990. A phorbol ester-regulated ribonuclease system controlling transforming growth factor BI gene expression in hematopoietic cells. Mol. Cell. Biol. 10:5983-5990), synchronized A1O cells, re-initiated to proliferate with DMEM+10% FBS were treated with either 5.5 mM or 25 mM glucose for 2 h to 24 h, then washed and collected in ice-cold 1× DPBS. The cellular pellet was re-suspended in extract buffer containing 0.01M Tris-HCl, 0.15M NaCl, 0.5% Nonidet P-40, leupeptin (10 μg/ml) and aprotonin (10 μg/ml) incubated on ice for 10 minutes and carefully layered over extract buffer containing 24% sucrose. Samples were centrifuged over a sucrose gradient at 1 0,000xg for 20 minutes at 4° C. Post-nuclear extract was separated, stored on ice and aliquots taken for protein concentration using Bradford protein assay (see Bradford, M. M. 1976. A rapid and sensitive method for the quantitation of microgram quantities of protein utilizing the principle of protein-dye bindingno title. Anal. Biochem. 72:248-254). Total RNA (10 μg) from A10 cells, was incubated with 2.7% (vol/vol) of the post-nuclear extracts for 30 minutes at 4° C. in 50 μl (final volume) of extract buffer. When specifically noted, 50 mM EDTA was added to the reactions as a control to inhibit nuclease activity. […]

[4] = tested on: PKCβI mRNA; test: RT-PCR of PKCβI mRNA in synchronized A10 cells; type: cell-based, rat; conditions: 4 hours
Experimental: as §1
Thus, the PKCβII transcript contains the PKCβI exon with the poly A tail and a common 3′ untranslated region (FIG. 25). Inclusion of the alternatively spliced exon encodes a stop codon such that the PKCβI exon facilitates poly-adenylation but the exon is not translated, thereby generating PKCβII protein. […] Although, this assay is semi-quantitative, the ration of PKCβII to PKCβI mRNA was about 2 to 1.

[5] = tested on: IL-3 3′-UTR ARE transcript; conditions: cited from earlier work
[6] = biological target: PP1; conditions: cited from earlier work
[7] = biological target: PP2B; conditions: cited from earlier work
[8] = biological target: PP2A; conditions: cited from earlier work
[9] = tested on: PKCβ promoter; test: PKCβ promoter-CAT deletion constructs transiently transfected into A10 cells; type: cell-based, rat; conditions: 100 nM TPA
Experimental: Calcium-phosphate transfections. For promoter studies, A10 cells were grown and synchronized in 6-well plates. Three hours prior to transfections, fresh medium (DMEM containing 10% fetal bovine serum) was substituted on A10 cells. pβG or pβG-PKCβII expression vectors were transfected with the calcium-phosphate-DNA precipitate. Following overnight incubation, calcium phosphate-DNA precipitate was washed off with 1× Dulbecco's phosphate buffered saline (DPBS) and replaced with fresh medium. For stably-transfected cell selection, 0.7 mg/ml G-418 was added to the media. It was changed every 4 days and 10-14 days later, the colonies were pooled and maintained in DMEM (10% FBS) with 0.2 mg/ml G-418.
Since PKCβ is a low copy gene, nuclear run-on assays were not a practical approach to examine transcriptional regulation. […] PKCβ promoter constructs with successive deletions of the 5′ region cloned in front of a promoterless chloramphenicol acetyltransferase (CAT) as the reporter gene were transiently transfected into A10 cells (FIG. 19). pSV-β-Galactosidase was co-transfected with the CAT constructs to normalize the efficiency of transfection. Simultaneous positive and negative controls were carried out as described previously.
Transcriptional repression of PKCβ promoter by transcription factors in response to high glucose was anticipated. […]

[10] = tested on: glucose-sensing element; test: Specificity of the glucose-sensing element for hexoses
[11] = tested on: PKCβ(I+II) mRNA; test: Northern blot of steady state PKCβ(I+II) mRNA in synchronized A10 cells; type: cell-based, rat; conditions: 25 mM mannitol osmotic control, 15-18 hours
Experimental: Cell culture. […] Cells were grown to >90% confluency and media was changed every 4 days. Cell synchronization was achieved by serum deprivation (0.5% FBS) for 48 hours (see, for example, Ross, R., C. Nist, B. Kariya, M. J. Rivest, E. Raines, and J. Callis. 1978. Physiological quiescence in plasma-derived serum: Influence of platelet derived growth factor on cell growth in culture. J. Cell. Physiol. 97:497-508).
Isolation of RNA and Northern Blot Analysis. Total cellular RNA was isolated from 100-mm plates using Tri-Reagent (Molecular Research Center, Inc.). […] Ethidium bromide was added in the loading buffer for visualization and quantitation of 18S and 28S RNA. After fractionation, the integrity and loading of RNA was assessed under UV light (23,24). […] Membranes were washed with high stringency conditions (1×SSC, 0.1% SDS for 15 minutes at 42° C. followed by 0.11× SSC, 0.1% SDS for 15 minutes at 42° C.), and quantitated using Molecular Dynamics Phosphoimaging System. In experiments, where mentioned, membranes were exposed to X-ray film and the autoradiograms were quantitated densitometrically.
Cells incubated with 25 mM mannitol were used as osmotic controls. Total RNA was extracted and the mRNA transcript levels were detected using a full length PKCβ cDNA probe which would cross-hybridize with both PKCβI and PKCβII mRNAs. […]

[12] = tested on: PKCβI mRNA; test: RT-PCR of PKCβI mRNA in primary human aortic smooth muscle cells (AoSMC); type: cell-based; conditions: 100 nM insulin, 4 hours
Experimental: (§2) Cells were grown to >90% confluency and medium was changed every 5 days.
as §1

[13] = tested on: PKCβII mRNA; test: RT-PCR of PKCβII mRNA in primary human aortic smooth muscle cells (AoSMC); type: cell-based; conditions: 4 hours; for effect on PKCβII mRNA: 100 nM insulin
Experimental: as §2, §1

With O=CC[C@@H](O)[C@H](O)[C@H](O)CO [2-DOG, 2-deoxyglucose] the “effect of glucose analogs on PKCβII mRNA” value ([1]; 4 hours) was “destabilized”.

In the case of CO[C@@H]([C@H](O)[C@H](O)CO)[C@@H](O)C=O [3-O-Methylglucose, 3-O-methylglucose], the “effect of glucose analogs on PKCβII mRNA” value ([1]; 4 hours) was “destabilized”.

For N#C/C(=C/c1ccc(O)c(O)c1)C(=O)NCc1ccccc1 [AG-490], the “PERCENT OF PKCβII mRNA POST-GLUCOSE TREATMENT” value [1] was 5%.

For CO[C@@H]1[C@H](N(C)C(=O)c2ccccc2)C[C@H]2O[C@]1(C)n1c3ccccc3c3c4c(c5c6ccccc6n2c5c31)C(=O)NC4 [CG 41251], the “PERCENT OF PKCβII mRNA POST-GLUCOSE TREATMENT” value [1] was 100%.

In the case of O=C1NC(=O)c2cc(Nc3ccc(F)cc3)c(Nc3ccc(F)cc3)cc21 [CGP53353], the “glucose-stimulated rat VSMC proliferation” value [2] is listed as “inhibits”.

For C[C@@H]1C[C@@H]([C@H](O)CC2CC(=O)NC(=O)C2)C(=O)[C@@H](C)C1 [Cycloheximide], the “effect of inhibitor on glucose-induced destabilization of PKCβII mRNA” value (“effect of inhibitor” for short) [1] was “did not block” and the “PERCENT OF PKCβII mRNA POST-GLUCOSE TREATMENT” value [1] was 10%.

With O=C(O)CN(CCN(CC(=O)O)CC(=O)O)CC(=O)O [EDTA] the “degradation of RNA by post-nuclear extract” value [3] was “No degradation”.

In the case of N[C@H]1C(O)O[C@H](CO)[C@@H](O)[C@@H]1O (stereo partly shown) [Glucosamine], the “effect on PKCβII mRNA” value ([1]; 10 mM glucosamine in the presence of 5.5 mM glucose, 4 hours) was “did not destabilize; also recorded: did not affect” and the “effect on PKCβI mRNA” value ([4]; 10 mM glucosamine in the presence of 5.5 mM glucose) was “did not destabilize; also recorded: did not affect”.

With CO[C@H]1[C@@H](OC)C[C@H](C)[C@@H](OC)C2=CC(=O)C=C(NC(=O)/C(C)=C/C=C\[C@H](OC)[C@@H](OC(N)=O)/C(C)=C/[C@@H]1C)C2=O [Herbimycin A] the “effect of inhibitor” value [1] was “prevented” and the “PERCENT OF PKCβII mRNA POST-GLUCOSE TREATMENT” value [1] was 90%.

In the case of O=c1cc(N2CCOCC2)oc2c(-c3ccccc3)cccc12 [LY 294002], the “PERCENT OF PKCβII mRNA POST-GLUCOSE TREATMENT” value [1] was 90%.

For C=C1[C@@H](O)[C@@H]2O[C@]3(CC[C@H](/C=C/[C@@H](C)[C@@H]4CC(C)=C[C@@]5(O[C@H](C[C@@](C)(O)C(=O)O)CC[C@H]5O)O4)O3)CC[C@H]2O[C@@H]1[C@@H](O)C[C@H](C)[C@H]1O[C@@]2(CCCCO2)CC[C@H]1C [Okadaic acid], the “effect on mRNA stability in GFP reporter system” value [5] is given as “mRNA stabilizing compound”, the pKi [6] is given as 7.70 and the Ki [7] is given as “less potent inhibitor”. For the same compound, the “effect of inhibitor” value [1] was “interfered; also recorded: inhibited the destabilization” and the pKi [8] was 9.70.

In the case of COc1cccc(-c2cc(=O)c3ccccc3o2)c1N [PD 98059], the “PERCENT OF PKCβII mRNA POST-GLUCOSE TREATMENT” value [1] was 5%.

For CO[C@H]1C[C@@H]2CC[C@@H](C)[C@@](O)(O2)C(=O)C(=O)N2CCCC[C@H]2C(=O)O[C@H]([C@H](C)C[C@@H]2CC[C@@H](O)[C@H](OC)C2)CC(=O)[C@H](C)/C=C(\C)[C@@H](O)[C@@H](OC)C(=O)[C@H](C)C[C@H](C)/C=C/C=C/C=C/1C [Rapamycin], the “PERCENT OF PKCβII mRNA POST-GLUCOSE TREATMENT” value [1] was 5%.

In the case of CCCCCCCCCCCCCC(=O)O[C@@H]1[C@@H](C)[C@@]2(O)[C@@H](C=C(CO)C[C@]3(O)C(=O)C(C)=C[C@@H]23)[C@@H]2C(C)(C)[C@]12OC(C)=O [TPA, 12-O-tetradecanoylphorbol-13-acetate], the “increase of promoter activity in all constructs” value [9] was “ten-fold”.

With O=C(CO)[C@@H](O)[C@H](O)[C@H](O)CO [fructose] the “destabilization of the glucose-sensing element” value [10] was “do not destabilize”.

In the case of OC[C@@H](O)[C@@H](O)[C@H](O)[C@H](O)CO [mannitol], the “PKCβ(I+II) mRNA levels” value [11] was “remained unchanged”, the “levels of PKCβII mRNA” value ([1]; 5.5 mM glucose+19.5 mM mannitol (osmotic control), 4 hours) was “did not; also recorded: remained unchanged” and the “destabilization of the glucose-sensing element” value [10] was “do not destabilize”. The “levels of PKCβI mRNA” value ([4]; 5.5 mM glucose+19.5 mM mannitol (osmotic control)) was “remained unchanged”.

In the case of “insulin: hormone that promotes glucose uptake”, the “effect on PKCβI mRNA” value [12] was “did not significantly affect”, the “effect on PKCβI mRNA” value ([12]; listed as Insulin) was “did not destabilize” and the “effect on PKCβII mRNA” value [13] was “did not significantly affect”. The “effect on PKCβII mRNA” value ([13]; listed as Insulin) was “did not destabilize” and the “PKCβII mRNA diminished” value ([13]; 25 mM glucose+100 nM insulin) was 60%.
